pIC50: −log10 of the molar value.
Key:
[1] = test system: human peripheral blood mononuclear cells; assay: Mitogenic assay: pokeweed mitogen stimulated proliferation ([3H]-thymidine incorporation) of human peripheral blood mononuclear cells; assay type: cell-based
Method: Cells: Human peripheral blood mononuclear cells were isolated from samples of blood (in 0.01M sodium citrate) using 50 mL LEUKOPREP® separation tubes (Becton Dickenson, Lincoln Park, N.J.). Tubes were centrifuged at room temperature for 15 minutes at 2400 rpm in a swinging bucket rotor. The cells recovered at interface were washed in Dulbecco's PBS and resuspended in RPMI 1640 containing 10% FCS, 5×10^-5 M 2-mercaptoethanol, 2 mM L-glutamine, 1% penicillin-streptomycin and 1 mM HEPES buffer (CM). Mitogenic Assay: Human peripheral blood mononuclear cells (2×10^5) were incubated with pokeweed mitogen at a final concentration of 0.1 μg/mL or Concanavalin A at a final concentration of 1.0 μg/mL in 96 well flat-bottomed microtiter plates (Falcon 3072, Becton Dickinson). Compounds to be tested were added at the initiation of culture. The final volume was 0.2 mL. The cultures were incubated in 95% humidified air/5% CO2 at 37° C. for 2 days (Concanavalin A) or 6 days (Pokeweed mitogen). Eighteen hours before termination of the cultures, each well was pulsed with 1 μCi of [^3 H]-thymidine. Cells from individual wells were harvested onto glass fiber filter paper with an automated multi-sample harvester. Filters were placed in scintillation fluid (Universal Cocktail, ICN Radiochemicals, Irvin, Calif.) and the [^3 H]-thymidine incorporation, in counts per minute (cpm), was measured in a Packard Tri-carb 4640 Scintillation Counter. Peripheral blood mononuclear cells from three individuals were cultured with an optimal concentration of pokeweed mitogen, a T-dependent B-cell mitogen, in the presence of increasing concentrations of (Z)-4',5'-didehydro-5'-deoxy-5'-fluoroadenosine. […] Similar studies were performed culturing human peripheral blood cells with an optimal concentration of Concanavalin A, a potent T-cell mitogen.

[2] = test system: human peripheral blood mononuclear cells; assay: Mitogenic assay: Concanavalin A stimulated proliferation ([3H]-thymidine incorporation) of human peripheral blood mononuclear cells; assay type: cell-based
Method: Cells: Human peripheral blood mononuclear cells were isolated from samples of blood (in 0.01M sodium citrate) using 50 mL LEUKOPREP® separation tubes (Becton Dickenson, Lincoln Park, N.J.). Tubes were centrifuged at room temperature for 15 minutes at 2400 rpm in a swinging bucket rotor. The cells recovered at interface were washed in Dulbecco's PBS and resuspended in RPMI 1640 containing 10% FCS, 5×10^-5 M 2-mercaptoethanol, 2 mM L-glutamine, 1% penicillin-streptomycin and 1 mM HEPES buffer (CM).
(§1) Mitogenic Assay: Human peripheral blood mononuclear cells (2×10^5) were incubated with pokeweed mitogen at a final concentration of 0.1 μg/mL or Concanavalin A at a final concentration of 1.0 μg/mL in 96 well flat-bottomed microtiter plates (Falcon 3072, Becton Dickinson). Compounds to be tested were added at the initiation of culture. The final volume was 0.2 mL. The cultures were incubated in 95% humidified air/5% CO2 at 37° C. for 2 days (Concanavalin A) or 6 days (Pokeweed mitogen). Eighteen hours before termination of the cultures, each well was pulsed with 1 μCi of [^3 H]-thymidine. Cells from individual wells were harvested onto glass fiber filter paper with an automated multi-sample harvester. Filters were placed in scintillation fluid (Universal Cocktail, ICN Radiochemicals, Irvin, Calif.) and the [^3 H]-thymidine incorporation, in counts per minute (cpm), was measured in a Packard Tri-carb 4640 Scintillation Counter.
Peripheral blood mononuclear cells from three individuals were cultured with an optimal concentration of pokeweed mitogen, a T-dependent B-cell mitogen, in the presence of increasing concentrations of (Z)-4',5'-didehydro-5'-deoxy-5'-fluoroadenosine. […] Similar studies were performed culturing human peripheral blood cells with an optimal concentration of Concanavalin A, a potent T-cell mitogen.

[3] = test system: murine splenic mononuclear cells; assay: Mitogenic assay: Concanavalin A stimulated proliferation ([3H]-thymidine incorporation) of murine splenic mononuclear cells; assay type: cell-based, CD-1 mice
Text: Cells: Spleens and/or lymph nodes from a total of 16 individual outbred CD-1 mice (Charles River, Wilmington, Mass.) were asceptically removed, pooled, and single cell suspensions were made in Hank's Balanced Salt Solution (HBSS, calcium and magnesium free). Erythrocytes were lysed by treatment with Tris-buffered ammonium chloride (0.155M NH4 Cl, 0.0165M Tris, pH 7.2). Mononuclear cells were washed with HBSS and resuspended in Dulbecco's PBS and resuspended in RPMI 1640 containing 10% FCS, 5×10^-5 M 2mercaptoethanol, 2 mM L-glutamine, 1% penicillin-streptomycin and 1 mM HEPES buffer (CM).
as §1, with “Murine splenic” for “Human peripheral blood”, “(5×10^5)” for “(2×10^5)”, “with” for “with pokeweed mitogen at a final concentration of 0.1 μg/mL or”, “2.5” for “1.0”, “plates.” for “plates (Falcon 3072, Becton Dickinson).”, “days.” for “days (Concanavalin A) or 6 days (Pokeweed mitogen).”

[4] = test system: anti-ovalbumin IgG; assay: In vivo immune response to T-dependent antigen (ovalbumin): serum anti-ovalbumin IgG by ELISA; parameters: species or system mice; conditions: for Anti-Ovalbumin Titer ± S.D.: ten days after immunization, dilution giving absorbance 0.750 at 405 nm
Method: In vivo immune response: Mice were radomly distributed by weight into 3 groups of ten. Dosing i.p. with Dulbecco's phosphate buffered saline (PBS) or (Z)-4',5'-didehydro-5'-deoxy-5'-fluoroadenosine (at 5 or 10 mg/Kg) dissolved in PBS was begun one day prior to immunization. Ovalbumin (Sigma, St. Louis, Mo.) at 2 mg/mL in PBS was emulsified in an equal volume of Freunds complete adjuvant and 50 μL, containing 50 μg ovalbumin, was injected into each footpad. Animals were dosed daily. Ten days after the immunization, the animals were bled for serum and sacrificed. Serum levels of anti-ovalbumin IgG were quantitated in an ELISA. Specifically, 100 μL of a 1% ovalbumin solution in Tris-bufferedsaline (TBS) (20 mM Tris, 500 mM NaCl, pH 7.5) was added to individual wells of a 96 well ELISA microtiter plate. The plate was incubated for 2 hours at room temperature and the wells were washed 3 times with TBS containing 0.05% Tween 20 (TBS-Tween). Dilutions of the serum samples in TBS-Tween (100 μL) were added to the wells, which were then incubated for one hour at room temperature. The plate was again washed 3 times with TBS-Tween. The wells were then incubated with 100 μL of a 1:1000 dilution of rabbit anti-mouse IgG labled with horse radish peroxidase (Bio-Rad, Richmond, Calif.) for one hour at room temperature. After washing 3 times with TBS-Tween, the wells were incubated with 100 μL of Bio-Rad peroxidase substrate [2,2'-azino-di-(3-ethyl-benzthiazoline sulfonate) in cocodylic acid buffer and hydrogen peroxide]. Absorbance at 405 nm was measured and the antibody titer was calculated from the linear regression curve of each serum sample and is reported as the log of the dilution which gave an absorbance reading of 0.750, unless otherwise indicated.

Nc1ncnc2c1ncn2[C@@H]1O/C(=C\F)[C@@H](O)[C@H]1O [Compound A, (Z)-4',5'-didehydro-5'-deoxy-5'-fluoroadenosine]
activity at 1 µM ([1]; Homo sapiens, PBMC, 144 h, 1.0 μM, pokeweed mitogen 0.1 μg/mL, 6 days, read-out: Proliferation (% of Control) Pokeweed mitogen): 50.9% | activity at 10 µM ([1]; Homo sapiens, PBMC, 144 h, 10.0 μM, pokeweed mitogen 0.1 μg/mL, 6 days, read-out: Proliferation (% of Control) Pokeweed mitogen): 19.7% | activity at 0.001 µM ([1]; Homo sapiens, PBMC, 144 h, .001 μM, pokeweed mitogen 0.1 μg/mL, 6 days, read-out: Proliferation (% of Control) Pokeweed mitogen): 97.4% | activity at 0.01 µM ([1]; Homo sapiens, PBMC, 144 h, .01 μM, pokeweed mitogen 0.1 μg/mL, 6 days, read-out: Proliferation (% of Control) Pokeweed mitogen): 103% | activity at 0.1 µM ([1]; Homo sapiens, PBMC, 144 h, .1 μM, pokeweed mitogen 0.1 μg/mL, 6 days, read-out: Proliferation (% of Control) Pokeweed mitogen): 72.1% | inhibition of pokeweed stimulated proliferation, in words ([1]; increasing concentrations): dose dependent inhibition | activity at 1 µM ([2]; Homo sapiens, PBMC, 48 h, 1.0 μM, Concanavalin A 1.0 μg/mL, 2 days, read-out: Proliferation (% of Control) Concanavalin A mitogen): 15.8% | activity at 10 µM ([2]; Homo sapiens, PBMC, 48 h, 10.0 μM, Concanavalin A 1.0 μg/mL, 2 days, read-out: Proliferation (% of Control) Concanavalin A mitogen): 3.7% | activity at 0.001 µM ([2]; Homo sapiens, PBMC, 48 h, .001 μM, Concanavalin A 1.0 μg/mL, 2 days, read-out: Proliferation (% of Control) Concanavalin A mitogen): 100% | activity at 0.01 µM ([2]; Homo sapiens, PBMC, 48 h, .01 μM, Concanavalin A 1.0 μg/mL, 2 days, read-out: Proliferation (% of Control) Concanavalin A mitogen): 101% | activity at 0.1 µM ([2]; Homo sapiens, PBMC, 48 h, .1 μM, Concanavalin A 1.0 μg/mL, 2 days, read-out: Proliferation (% of Control) Concanavalin A mitogen): 66.4% | pIC50 ([2]; PBMC, 48 h, human cells, Concanavalin A 1.0 μg/mL, 2 days, read-out: IC50, inhibition of Concanavalin A stimulated proliferation): 6.60 | inhibition of Concanavalin A stimulated proliferation, in words ([2]; human cells, increasing concentrations): dose dependent inhibition | activity at 1 µM ([3]; Mus musculus, 48 h, 1.0 μM, Concanavalin A 2.5 μg/mL, 2 days, read-out: Proliferation (% of Control) Concanavalin A mitogen): 28.6% | activity at 10 µM ([3]; Mus musculus, 48 h, 10.0 μM, Concanavalin A 2.5 μg/mL, 2 days, read-out: Proliferation (% of Control) Concanavalin A mitogen): 17.9% | activity at 0.001 µM ([3]; Mus musculus, 48 h, .001 μM, Concanavalin A 2.5 μg/mL, 2 days, read-out: Proliferation (% of Control) Concanavalin A mitogen): 96.3% | activity at 0.01 µM ([3]; Mus musculus, 48 h, .01 μM, Concanavalin A 2.5 μg/mL, 2 days, read-out: Proliferation (% of Control) Concanavalin A mitogen): 86% | activity at 0.1 µM ([3]; Mus musculus, 48 h, .1 μM, Concanavalin A 2.5 μg/mL, 2 days, read-out: Proliferation (% of Control) Concanavalin A mitogen): 51.8% | pIC50 ([3]; Mus musculus, 48 h, murine cells, Concanavalin A 2.5 μg/mL, 2 days, read-out: IC50, inhibition of Concanavalin A stimulated proliferation): 6.72 | inhibition of Concanavalin A stimulated proliferation, in words ([3]; murine cells, increasing concentrations): dose dependent inhibition | Anti-Ovalbumin Titer ± S.D. ([4]; 5 mg/Kg i.p. daily): 550 ± 272 | Anti-Ovalbumin Titer ± S.D. ([4]; 10 mg/Kg i.p. daily): 375 ± 124 | serum levels of anti-ovalbumin IgG compared to Controls ([4]; 5 or 10 mg/Kg i.p. daily, in words): significantly reduced

From patent US5470837A, “5'-vinylhalo-aristeromycin/adenosine analogs and immunosuppressants” (Merrell Dow Pharmaceuticals Inc., priority 1994, dated 1995)
